{"source": "patent US8951986B2", "about": "“Salts of HIV inhibitor compounds” (Gilead Sciences, Inc., priority 2008, dated 2015)", "key": {"HIV-1 IIIB": {"system": "HIV-1 IIIB", "assay": "Anti-HIV-1 activity in MT-2 cells, virus-induced cytopathic effect (CellTiter-Glo)", "format": "cell-based", "settings": "MT-2 cells infected with HIV-1 IIIB, 5-day incubation; mean ± SD", "procedure": "MT-2 cells were maintained in RPMI-1640 medium supplemented with antibiotics and 10% fetal bovine serum (FBS). MT-2 cells were infected with HIV-1 IIIB at a multiplicity of infection (moi) of 0.01 and added to 96-well plates with serial dilutions of tested compounds at a density of 20,000 cells/well. […] Activity against NRTI-resistant mutants was determined in parallel with wild-type control virus and fold change in EC50 was calculated."}, "HIV-1 BaL": {"system": "HIV-1 BaL", "assay": "Anti-HIV-1 activity in activated PBMC, p24 ELISA", "format": "cell-based", "settings": "activated PBMC infected with HIV-1 BaL, 5 days, mean ± SD", "procedure": "Activated PBMC were infected with HIV-1 BaL for 3 hours, washed, seeded into 96-well plates (250,000 cells/well) and incubated with serial dilutions of tested compounds for 5 days, at which point cell supernatants were collected and virus production was determined using commercial HIV-1 p24 ELISA (Beckman Coulter, Miami, Fla.)."}}, "data": [{"compound": "Nc1ncnc2c1ncn2[C@@H]1O[C@H](OCP(=O)(O)O)C=C1F", "note": "[Parent Compound]", "values": [{"measurement": "EC50", "setting": "HIV-1 IIIB", "value": "10.6 ± 2.4", "unit": "µM"}, {"measurement": "EC50", "setting": "HIV-1 BaL", "value": "8.5 ± 7.7", "unit": "µM"}]}]}
